biological target: H1047R PIK3CA enzyme (Homo sapiens, UniProt P42336, H1047R); experiment: ADP-Glo Biochemical PIK3CA Kinase Assay
Protocol: Compounds to be assayed were plated in 16 doses of 1:2 serial dilutions (20 nL volume each well) on a 1536-well plate, and the plate warmed to room temperature. […] To the well was added 1 μL of 200 μM ATP and 20 μM of diC8-PIP2 in Substrate Assay Buffer (50 mM HEPES pH7.4, 50 mM NaCl, 5 mM DTT and 0.03% CHAPS) to start the reaction, and the plate was shaken for 10 seconds, then spun briefly at 1500 rpm, and then incubated for 60 minutes at room temperature. The reaction was stopped by adding 2 μL of ADP-Glo reagent (Promega), and spinning briefly at 1500 rpm, and then incubating for 40 minutes. ADP-Glo Detection reagent (Promega) was added and the plate spun briefly at 1500 rpm, then incubated for 30 minutes.

Sequence of H1047R PIK3CA enzyme (P42336 whole entry H1047R): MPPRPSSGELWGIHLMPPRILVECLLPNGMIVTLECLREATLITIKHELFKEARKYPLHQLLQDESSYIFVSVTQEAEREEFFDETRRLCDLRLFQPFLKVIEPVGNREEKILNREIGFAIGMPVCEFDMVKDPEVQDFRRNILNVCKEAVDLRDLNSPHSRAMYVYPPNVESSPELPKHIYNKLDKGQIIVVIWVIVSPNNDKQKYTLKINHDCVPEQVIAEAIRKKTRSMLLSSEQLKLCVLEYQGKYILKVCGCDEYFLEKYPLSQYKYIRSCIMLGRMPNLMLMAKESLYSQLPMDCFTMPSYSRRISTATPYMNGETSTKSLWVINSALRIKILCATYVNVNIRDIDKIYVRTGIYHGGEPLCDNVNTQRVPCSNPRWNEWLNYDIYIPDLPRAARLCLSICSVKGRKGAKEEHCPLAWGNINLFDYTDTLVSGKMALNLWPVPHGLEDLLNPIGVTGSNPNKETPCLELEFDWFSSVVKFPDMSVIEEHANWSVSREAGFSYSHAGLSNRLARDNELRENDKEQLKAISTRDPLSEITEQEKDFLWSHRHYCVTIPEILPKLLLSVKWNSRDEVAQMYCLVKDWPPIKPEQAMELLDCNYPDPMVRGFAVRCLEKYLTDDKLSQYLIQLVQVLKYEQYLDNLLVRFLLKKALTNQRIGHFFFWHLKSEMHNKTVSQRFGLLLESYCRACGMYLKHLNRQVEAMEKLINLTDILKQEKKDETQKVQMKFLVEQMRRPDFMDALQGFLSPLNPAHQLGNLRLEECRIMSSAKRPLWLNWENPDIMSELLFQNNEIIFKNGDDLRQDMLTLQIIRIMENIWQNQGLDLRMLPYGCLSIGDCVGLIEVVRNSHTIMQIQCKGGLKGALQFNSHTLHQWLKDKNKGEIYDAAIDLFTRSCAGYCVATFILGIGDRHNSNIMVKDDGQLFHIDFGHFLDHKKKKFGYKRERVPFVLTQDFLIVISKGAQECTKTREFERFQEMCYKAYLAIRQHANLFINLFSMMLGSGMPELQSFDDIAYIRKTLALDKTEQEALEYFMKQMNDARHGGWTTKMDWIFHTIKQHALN
Sequence of H1047R PIK3CA enzyme (P27986 whole entry partner): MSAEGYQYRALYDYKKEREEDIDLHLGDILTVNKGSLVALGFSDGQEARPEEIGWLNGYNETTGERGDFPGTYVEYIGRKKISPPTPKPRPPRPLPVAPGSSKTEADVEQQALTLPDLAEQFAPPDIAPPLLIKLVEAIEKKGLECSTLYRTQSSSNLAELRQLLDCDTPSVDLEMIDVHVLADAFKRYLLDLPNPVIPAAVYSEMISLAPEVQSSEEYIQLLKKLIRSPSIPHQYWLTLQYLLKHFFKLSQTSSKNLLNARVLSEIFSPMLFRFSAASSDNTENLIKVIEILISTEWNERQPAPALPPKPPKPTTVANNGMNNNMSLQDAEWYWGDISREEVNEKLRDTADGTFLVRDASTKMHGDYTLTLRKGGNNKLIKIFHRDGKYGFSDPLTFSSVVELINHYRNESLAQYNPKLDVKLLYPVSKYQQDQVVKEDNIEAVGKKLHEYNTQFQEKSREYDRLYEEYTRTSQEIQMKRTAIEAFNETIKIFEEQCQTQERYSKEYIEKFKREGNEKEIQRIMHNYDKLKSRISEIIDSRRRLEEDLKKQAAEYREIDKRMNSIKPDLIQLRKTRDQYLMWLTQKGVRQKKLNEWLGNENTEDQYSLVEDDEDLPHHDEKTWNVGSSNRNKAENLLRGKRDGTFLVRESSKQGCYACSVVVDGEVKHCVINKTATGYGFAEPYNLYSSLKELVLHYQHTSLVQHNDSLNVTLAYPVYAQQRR

IC50 | SMILES
1000 to 10000 nM | O=C1N[C@@H](c2cc(F)ccc2Cl)c2c(NC(=O)N3C[C@H](O)c4cc(F)ccc43)cc(-c3ccc(=O)n(C(F)F)c3)cc21 (single isomer, unassigned) [Compound I-2450]
10000 to 100000 nM | O=C1NC(c2cc(F)ccc2Cl)c2c(NC(=O)C3CC(O)C3)cc(-c3ccc4ncnn4c3)cc21 (centres unmarked) [Compound I-1664]
1000 to 10000 nM | CC(C)(O)CN(CC(C)(C)O)c1cc(NC(=O)c2cc(F)cc(C(F)(F)F)c2)c2c(c1)C(=O)NC2c1cc(F)ccc1Cl (centres unmarked) [Compound I-848]
≤ 100 nM | N#Cc1ccc2c(c1)CCCN2c1cc(NC(=O)c2cc(F)cc(C(F)(F)F)c2)c2c(c1)C(=O)NC2c1cc(F)ccc1Cl (centres unmarked) [Compound I-1262]
≤ 100 nM | CC(C)(C#N)n1cc(-c2cc(NC(=O)c3cc(F)cc(C(F)(F)F)c3)c3c(c2)C(=O)N[C@H]3c2cc(F)ccc2Cl)cn1 (racemic) [Compound I-1661]
≤ 100 nM | O=C(Nc1cc(Nc2ccno2)cc2c1C(c1cc(F)ccc1Cl)NC2=O)c1cc(F)cc(C(F)(F)F)c1 (centres unmarked) [Compound I-1115]
≤ 100 nM | N#CC1(n2cc(-c3cc(NC(=O)c4cc(F)cc(C(F)(F)F)c4)c4c(c3)C(=O)N[C@H]4c3cc(F)ccc3Cl)cn2)CC1 [Compound I-1886]
1000 to 10000 nM | Cc1ccccc1[C@H]1NC(=O)c2cc(CO)cc(NC(=O)c3nsc4ccccc34)c21 [Compound I-307]
100 to 500 nM | O=C(Nc1cc(C(O)C2(O)COC2)cc2c1C(c1cc(F)ccc1Cl)NC2=O)c1cc(F)cc(C(F)(F)F)c1 (centres unmarked) [Compound I-1337]
10000 to 100000 nM | CC(C)(C)N[C@@H]1NC(=O)c2cccc(NC(=O)c3cc(F)cc(C(F)(F)F)c3)c21 (single isomer, unassigned) [Compound I-2247]
10000 to 100000 nM | O=C1N[C@@H](c2cc(F)ccc2Cl)c2c(NC(=O)[C@H]3C[C@H]3C(F)(F)F)cc(Br)cc21 (racemic) [Compound I-1853]
1000 to 10000 nM | O=C1N[C@H](c2cc(F)ccc2Cl)c2c(NC(=O)[C@H]3C[C@H](O)C[C@@H](C(F)(F)F)C3)cc(Br)cc21 (single isomer, unassigned) [Compound I-2150]
500 to 1000 nM | Cc1ccccc1C1NC(=O)c2cccc(NC(=O)c3coc4cc(F)ccc34)c21 (centres unmarked) [Compound I-20]
10000 to 100000 nM | O=C1NC(c2cc(F)ccc2Cl)c2c(Nc3noc4ccccc34)cc(Br)cc21 (centres unmarked) [Compound I-1058]
10000 to 100000 nM | CNC(=O)c1cc(NC(=O)c2ccccc2)c2c(c1)C(=O)NC2c1cc(F)ccc1Cl (centres unmarked) [Compound I-1548]
≤ 100 nM | Cc1ccccc1C1NC(=O)c2c(CO)ccc(NC(=O)c3csc4ccccc34)c21 (centres unmarked) [Compound I-224]
1000 to 10000 nM | CCc1cc(C(=O)Nc2cc(Br)cc3c2C(c2ccccc2C)NC3=O)ccc1F (centres unmarked) [Compound I-640]
10000 to 100000 nM | Cc1ccccc1C1NC(=O)c2cccc(NC(=O)c3n[nH]cc3Br)c21 (centres unmarked) [Compound I-411]
≤ 100 nM | N#CCn1nccc1-c1cc(NC(=O)c2cc(F)cc(C(F)(F)F)c2)c2c(c1)C(=O)NC2c1cc(F)ccc1Cl (centres unmarked) [Compound I-1303]
≤ 100 nM | O=C(Nc1cc(NC2COC2)cc2c1C(c1cc(F)ccc1Cl)NC2=O)c1cc(F)cc(C(F)(F)F)c1 (centres unmarked) [Compound I-613]

IC50 | SMILES
10000 to 100000 nM | N#Cc1ccccc1C(=O)Nc1cc(Br)cc2c1C(c1cc(F)ccc1Cl)NC2=O (centres unmarked) [Compound I-639]
10000 to 100000 nM | O=C1NC(c2cc(F)ccc2Cl)c2c(Nc3ccn(CCO)n3)cc(-c3ccc4ncnn4c3)cc21 (centres unmarked) [Compound I-1994]
≤ 100 nM | O=C(Nc1cc(-c2ccn3ncnc3n2)cc2c1C(c1cc(F)ccc1Cl)NC2=O)c1cc(F)cc(C(F)(F)F)c1 (centres unmarked) [Compound I-1677]
10000 to 100000 nM | CC(c1ccccc1O)N(C)C(=O)Nc1cc(Br)cc2c1C(c1cc(F)ccc1Cl)NC2=O (centres unmarked) [Compound I-1459]
≤ 100 nM | O=C(Nc1cc(C2CNCCS2(=O)=O)cc2c1C(c1cc(F)ccc1Cl)NC2=O)c1cc(F)cc(C(F)(F)F)c1 (racemic) [Compound I-1255]
≤ 100 nM | CC(C)(C#N)n1cc(-c2cc(NC(=O)c3cc(F)cc(C(F)(F)F)c3)c3c(c2)C(=O)NC3c2cc(F)ccc2Cl)cn1 (centres unmarked) [Compound I-1618]
≤ 100 nM | O=C(Nc1cc(N2CC(F)(F)C2)cc2c1C(c1cc(F)ccc1Cl)NC2=O)c1cc(F)cc(C(F)(F)F)c1 (centres unmarked) [Compound I-370]
1000 to 10000 nM | O=C1N[C@@H](c2cc(F)ccc2Cl)c2c(NC(=O)N3C[C@](O)(C(F)F)c4cc(F)ccc43)cccc21 (single isomer, unassigned) [Compound I-2557]
≤ 100 nM | Cc1ccc(F)cc1C1NC(=O)c2cc(Br)cc(NC(=O)c3cc(F)cc(C(F)(F)F)c3)c21 (centres unmarked) [Compound I-759]
10000 to 100000 nM | O=C(Nc1cc(-c2ccc3ncnn3c2)cc2c1[C@@H](c1cc(F)ccc1Cl)NC2=O)c1cc(F)cc(C(F)F)c1 (stereo in doubt) [Compound I-1172]
1000 to 10000 nM | O=C(Nc1cc(-c2ccc3nc(Cl)nn3c2)cc2c1[C@@H](c1cc(F)ccc1Cl)NC2=O)c1cc(F)cc(C(F)(F)F)c1 [Compound I-1692]
500 to 1000 nM | O=C(Nc1cc(Cc2ccc3c(c2)CCNC3=O)cc2c1[C@@H](c1cc(F)ccc1Cl)NC2=O)c1cc(F)cc(C(F)(F)F)c1 [Compound I-1625]
10000 to 100000 nM | O=C1NC(c2cc(F)ccc2Cl)c2c(CC(=O)N3CCc4ccccc43)cc(-c3ccc4ncnn4c3)cc21 (centres unmarked) [Compound I-1914]
≤ 100 nM | O=C(Nc1cc(C2CCOCC2)cc2c1C(c1cc(F)ccc1Cl)NC2=O)c1cc(F)cc(C(F)(F)F)c1 (centres unmarked) [Compound I-1187]
1000 to 10000 nM | O=C(Nc1cccc2c1[C@H]([C@@H]1CCCC(F)(F)C1)NC2=O)c1cc(F)cc(C(F)(F)F)c1 [Compound I-1752]
10000 to 100000 nM | O=C1NC(c2cc(F)ccc2Cl)c2c(NC(=O)C3CNCCO3)cc(-c3ccc4ncnn4c3)cc21 (centres unmarked) [Compound I-1900]
10000 to 100000 nM | O=C1N[C@@H](c2cc(F)ccc2Cl)c2c(NC(=O)N3CCC[C@](O)(C(F)(F)F)C3)cccc21 (single isomer, unassigned) [Compound I-2115]
10000 to 100000 nM | Cc1ccccc1C1NC(=O)c2cccc(NCc3nsc4ccccc34)c21 (centres unmarked) [Compound I-145]
500 to 1000 nM | O=C(Nc1cc(-c2cnc3ncc(Cl)n3c2)cc2c1[C@@H](c1cc(F)ccc1Cl)NC2=O)c1cc(F)cc(C(F)(F)F)c1 [Compound I-1984]
1000 to 10000 nM | O=C(Nc1cc(Br)cc2c1[C@@H](c1cc(F)c(F)cc1Cl)NC2=O)c1cc(F)cc(C(F)(F)F)c1 [Compound I-676]

IC50 | SMILES
1000 to 10000 nM | O=C1N[C@@H](c2cc(F)ccc2Cl)c2c(NC(=O)N3C[C@@](O)(C(F)(F)F)c4cc(F)ccc43)cc(N3CCCC3=O)cc21 (single isomer, unassigned) [Compound I-2667]
≤ 100 nM | O=C(Nc1cc(C2CNC2)cc2c1C(c1cc(F)ccc1Cl)NC2=O)c1cc(F)cc(C(F)(F)F)c1 (centres unmarked) [Compound I-654]
≤ 100 nM | CC(C#N)n1cc(-c2cc(NC(=O)c3cc(F)cc(C(F)(F)F)c3)c3c(c2)C(=O)NC3c2cc(F)ccc2Cl)cn1 (centres unmarked) [Compound I-1837]
1000 to 10000 nM | N#CCc1cc(NC(=O)N2C[C@@](O)(C(F)(F)F)c3ccccc32)c2c(c1)C(=O)N[C@H]2c1cc(F)ccc1Cl (single isomer, unassigned) [Compound I-2602]
10000 to 100000 nM | COc1cc(C)c(C(=O)Nc2cc(Br)cc3c2C(c2cc(F)ccc2Cl)NC3=O)cn1 (centres unmarked) [Compound I-850]
500 to 1000 nM | Cc1ccccc1[C@H]1NC(=O)c2cccc(NC(=O)c3nsc4ccccc34)c21 [Compound I-73]
≤ 100 nM | O=C1C[C@H](c2cc(NC(=O)c3cc(F)cc(C(F)(F)F)c3)c3c(c2)C(=O)N[C@H]3c2cc(F)ccc2Cl)CN1 (single isomer, unassigned) [Compound I-1709]
1000 to 10000 nM | O=C1N[C@@H](c2cc(F)ccc2Cl)c2c(NC(=O)N3C[C@H](O)c4c3ccc(F)c4F)cccc21 (single isomer, unassigned) [Compound I-2312]
≤ 100 nM | [2H]c1nc2cnc(-c3cc(NC(=O)c4cc(F)cc(C(F)(F)F)c4)c4c(c3)C(=O)NC4c3cc(F)ccc3Cl)cn2n1 (centres unmarked) [Compound I-2012]
100 to 500 nM | O=C(Nc1cc(/N=C2\OC[C@@H]3CCCN23)cc2c1C(c1cc(F)ccc1Cl)NC2=O)c1cc(F)cc(C(F)(F)F)c1 (some centres unmarked) [Compound I-2355]
100 to 500 nM | O=C(Nc1cccc2c1C(c1cc(F)c(F)cc1C(F)F)NC2=O)c1cc(F)cc(Cl)c1 (centres unmarked) [Compound I-331]
1000 to 10000 nM | O=C1N[C@@H](c2cc(F)ccc2Cl)c2c(NC(=O)N3C[C@](O)(CO)c4ccccc43)cccc21 [Compound I-2166]
1000 to 10000 nM | CNc1cc(NC(=O)N2C[C@](O)(C(F)F)c3cc(F)ccc32)c2c(c1)C(=O)N[C@H]2c1cc(F)ccc1Cl (single isomer, unassigned) [Compound I-2678]
500 to 1000 nM | CC(C)(O)c1cc(NC(=O)N2C[C@H](O)c3ccccc32)c2c(c1)C(=O)N[C@H]2c1cc(F)ccc1Cl (single isomer, unassigned) [Compound I-2123]
100 to 500 nM | Nc1nn(C(=O)Nc2cccc3c2C(c2cc(F)ccc2Cl)NC3=O)c2ccccc12 (centres unmarked) [Compound I-2381]
1000 to 10000 nM | NCc1cc(NC(=O)N2C[C@](O)(C(F)F)c3cc(F)ccc32)c2c(c1)C(=O)N[C@H]2c1cc(F)ccc1Cl (single isomer, unassigned) [Compound I-2697]
1000 to 10000 nM | O=C1NC(c2cc(F)ccc2Cl)c2c(NC(=O)N3CCC4C3[C@@H]4C(F)(F)F)cccc21 (single isomer, unassigned) [Compound I-2329]
≤ 100 nM | O=C(Nc1cc(Br)cc2c1[C@H](c1cc(Cl)cc(F)c1F)NC2=O)c1cc(F)cc(C(F)(F)F)c1 [Compound I-786]

SMILES | IC50
N#Cc1cnn(-c2cc(NC(=O)N3C[C@H](O)c4cc(F)ccc43)c3c(c2)C(=O)N[C@H]3c2cc(F)ccc2Cl)c1 [Compound I-2403] | ≤ 100 nM
